Measured values as given in paper PMC9036659, “Boron-containing capsaicinoids” (RSC Advances, 2021).
≈ marks a conversion by molar mass, not a printed value. Like-named read-outs stand apart in the source and are kept apart here. Marks after values point to notes of the source that are not given here.

Assays:
[1] = tested on: methicillin-resistant Staphylococcus aureus MRSA 310; experiment: Antimicrobial assay, MRSA (PrestoBlue fluorescence); type: cell-based; settings: for MRSA MIC90 / IC50 / MIC90: 22 h; for IC50 / MIC90: Staphylococcus aureus, MRSA; for IC50: read-out: MRSA IC50; for MIC90: read-out: MRSA MIC90
Experimental: (§1) The microorganisms (methicillin-resistant S. aureus MRSA 310, vancomycin-resistant E. faecium VRE 379, S. warneri (ATCC 17917), P. vulgaris (ATCC 12454), P. aeruginosa (ATCC 14210), and C. albicans (ATCC 14035)) were grown overnight on agar media. The following day the cultures were transferred into 0.9% saline water into a sterile glass tube. Using the McFarland reader, the turbidity was determined and further diluted into their respective media. The pure compounds were tested at seven different concentrations ranging from 2 to 128 μg mL^−1 in triplicate. Samples were plated into 96 well plates (10 μL in 20% DMSO) and then diluted pathogen (90 μL) was pipetted into the pre-prepared sample plates yielding 5 × 10^5 cfu mL^−1 with a final volume of 100 μL. Antibiotics that are active against specific pathogens were used as positive controls. The plates were incubated into a 37 °C incubator for 22 h. Growth of S. warneri. P. vulgaris, P. aeruginosa and C. albicans were measured by reading optical density (OD600), or in the case of slow growing microorganisms (MRSA and VRE), PrestoBlue was used to assess metabolic activity by measuring fluorescence (535–560)/(590–615) (excitation/emission) using a Thermo Scientific Varioskan Flash plate reader at time zero and then again after incubation of the plates for 22 h at 37 °C. After subtracting the time zero OD600 from the final reading, the percentages of microorganism survival relative to vehicle control wells were calculated. […]
(§2) Antimicrobial Assay Data Growth of S. warneri. P. vulgaris, P. aeruginosa and C. albicans were measured by reading optical density (OD600), or in the case of slow growing microorganisms (MRSA and VRE), PrestoBlue was used to assess metabolic activity by measuring fluorescence (535-560)⁄(590-615) (excitation/emission) using a Thermo Scientific Varioskan Flash plate reader at time zero and then again after incubation of the plates for 22 h at 37 °C. After subtracting the time zero OD600 from the final reading, the percentages of microorganism survival relative to vehicle control wells were calculated. […]

[2] = tested on: vancomycin-resistant Enterococcus faecium VRE 379; experiment: Antimicrobial assay, VRE (PrestoBlue fluorescence); type: cell-based; settings: for VRE MIC90 / VRE IC50 / MIC90 / IC50: 22 h, 37 °C, Inactive = inhibition above 300 μM; for VRE IC50 / IC50: average ± SD
Experimental: as §1, §2

[3] = tested on: Staphylococcus warneri (ATCC 17917); experiment: Antimicrobial assay, S. warneri (OD600); type: cell-based; settings: for IC50 / MIC90: Staphylococcus warneri; for IC50: read-out: S. warneri IC50; for MIC90: read-out: S. warneri MIC90
Experimental: as §1, §2

[4] = tested on: green monkey kidney cells Vero (ATCC CCL-81); experiment: Cytotoxicity assay (Alamar blue), Vero; type: cell-based; settings: for IC50: Chlorocebus sabaeus, Vero, read-out: IC50 Vero (normal cell line); for IC50 / IC50 Vero (normal cell line): 24 h incubation, average ± SD, Inactive = inhibition above 300 μM
Experimental: (§3) The cells (human foreskin BJ fibroblast cells (ATCC CRL-2522), green monkey kidney cells Vero (ATCC CCL-81), human breast adenocarcinoma cells (ATCC HTB-26 MDA-MB 231), human breast adenocarcinoma cells (MCF7 ATCC HTB-22), and human colorectal carcinoma cells (HCT116 ATCC CCL-247)) were grown to 80% confluency, the cells were counted, diluted, and plated into treated 96-well cell culture plates. The BJ fibroblast and Vero cells were plated at a cell density of 10 000 cells per well and the HTB26, HCT116 and MCF7 cells were plated at cell density of 5000 cells per well in 90 μL of respective growth medium (without the addition of antibiotics) and incubated for 24 h to allow cells to adhere to the plates before treatment. Pure compounds were tested in triplicate in serial dilutions of seven concentrations ranging from 2 to 128 μg mL^−1 per well (final well volume of 100 μL, 1% DMSO per well). Each of the cell lines were incubated at 37 °C in a humidified atmosphere of 5% CO2; the BJ fibroblast and Vero cells for 24 h and the HTB-26, HCT116 and MCF7 cells for 72 h. Each plate contained four uninoculated positive controls, four untreated negative controls, and one column containing a concentration range for doxorubicin. Alamar blue was added, 24 h after the treatment, and fluorescence was monitored using a Cytation Gen 5 plate reader using 560 nm Ex/590 Em both at time zero and 4 h after Alamar blue addition. The inferred percentage of cell viability relative to vehicle control wells were calculated after subtracting the time zero emission 590 nm measurement from the final reading and the IC50 was determined. […]
(§4) Cytotoxicity Assay Data Alamar blue was added, 24 h after the treatment, and fluorescence was monitored using a Cytation Gen 5 plate reader using 560 nm Ex/590 Em both at time zero and 4 h after Alamar blue addition. The inferred percentage of cell viability relative to vehicle control wells were calculated after subtracting the time zero emission 590 nm measurement from the final reading and the IC50 was determined.

[5] = tested on: human foreskin BJ fibroblast cells (ATCC CRL-2522); experiment: Cytotoxicity assay (Alamar blue), BJ; type: cell-based; settings: for IC50: Homo sapiens, Fibroblast, read-out: IC50 BJ (normal cell line); for IC50 / IC50 BJ (normal cell line): 24 h incubation, average ± SD, Inactive = inhibition above 300 μM
Experimental: as §3, §4

[6] = tested on: human colorectal carcinoma cells (HCT116 ATCC CCL-247); experiment: Cytotoxicity assay (Alamar blue), HCT116; type: cell-based; settings: for IC50: Homo sapiens, HCT-116, 72 h incubation, average ± SD, Inactive = inhibition above 300 μM, read-out: IC50 HCT (cancer cell line)
Experimental: as §3, §4

[7] = tested on: human breast adenocarcinoma cells (ATCC HTB-26 MDA-MB 231); experiment: Cytotoxicity assay (Alamar blue), HTB-26; type: cell-based; settings: for IC50: Homo sapiens, HTB26, 72 h incubation, average ± SD, Inactive = inhibition above 300 μM, read-out: IC50 HTB (cancer cell line)
Experimental: as §3, §4

[8] = tested on: human breast adenocarcinoma cells (MCF7 ATCC HTB-22); experiment: Cytotoxicity assay (Alamar blue), MCF7; type: cell-based; settings: for IC50: Homo sapiens, MCF7, 72 h incubation, average ± SD, Inactive = inhibition above 300 μM, read-out: IC50 MCF7 (cancer cell line)
Experimental: as §3, §4

MRSA = tested on: MRSA; parameters: method as in doi:10.1139/cjc-2018-0193; settings: data collected in previous study; Inactive = inhibition above 400 μM; cited from earlier work
[9] = tested on: vancomycin-resistant Enterococcus; parameters: method as in doi:10.1139/cjc-2018-0193; settings: data collected in previous study; Inactive = inhibition above 400 μM; cited from earlier work
[10] = 37 °C, concentration for 90% growth inhibition, Inactive = inhibition above 300 μM
[11] = 37 °C, average ± SD, Inactive = inhibition above 300 μM
[12] = 22 h, 37 °C, Inactive = inhibition above 300 μM
[13] = 22 h, 37 °C, average ± SD, Inactive = inhibition above 300 μM
[14] = ATCC17917, 22 h, 37 °C, Inactive = inhibition above 300 μM
[15] = ATCC17917, 22 h, 37 °C, average ± SD, Inactive = inhibition above 300 μM

MRSA MIC90 [1, 10] | IC50 [1, 11] [µM] | VRE MIC90 [2] | VRE IC50 [2] | Compound | antimicrobial activity against MRSA (in words) [1] | IC50 [4] [µM] | IC50 [5] [µM] | cytotoxic activity against HCT116 (in words) [6] | IC50 [6] [µM] | cytotoxic activity against HTB-26 MDA-MB 231 (in words) [7] | IC50 [7] [µM] | cytotoxic activity against MCF7 (in words) [8] | IC50 [8] [µM] | further results
Inactive | 154 ± 37.1 | Inactive | Inactive | COc1ccc(CN(C(=O)CCCCCCCCB2OC(C)(C)C(C)(C)O2)c2ccccc2)cc1OC [Compound 32, N-(3,4-dimethoxybenzyl)-N-phenyl-9-(4,4,5,5-tetramethyl-1,3,2-dioxaborolan-2-yl)nonamide] | only active against MRSA | 77.1 ± 8.4 | 112 ± 10 | unselective cytotoxic effects | 80.1 ± 3.9 | unselective cytotoxic effects | 42.6 ± 1.8 | unselective cytotoxic effects | 68.5 ± 15.1 | S. warneri MIC90 [3, 12]: Inactive; S. warneri IC50 [3, 13]: Inactive; cytotoxic activity against Vero (in words) [4]: unselective cytotoxic effects; cytotoxic activity against BJ (in words) [5]: unselective cytotoxic effects
– | – | – | – | OB(O)c1ccccc1 [Phenylboronic acid] | – | – | – | – | – | – | – | – | – | IC50 (MRSA): 170 µM; MRSA MIC90 (MRSA): Inactive; VRE IC50 [9]: Inactive; VRE MIC90 [9]: Inactive
– | – | – | – | COc1cccc2c1C(=O)c1c(O)c3c(c(O)c1C2=O)C[C@@](O)(C(=O)CO)C[C@@H]3O[C@H]1C[C@H](N)[C@H](O)[C@H](C)O1 [Doxorubicin, reference compound] | – | > 14.7 | > 14.7 | – | < 0.00012 | – | 0.4 ± 0.2 | – | 0.2 ± 0.2 | –
– | – | – | – | COc1cc(CNC(=O)CCCC/C=C/C(C)C)ccc1O [Capsaicin] | – | – | – | – | – | – | – | – | – | MRSA IC50 (MRSA): Inactive; MRSA MIC90 (MRSA): Inactive; VRE IC50 [9]: Inactive; VRE MIC90 [9]: Inactive
– | – | – | – | CO[C@H]1/C=C/O[C@@]2(C)Oc3c(C)c(O)c4c(O)c(c(/C=N/N5CCN(C)CC5)c(O)c4c3C2=O)NC(=O)/C(C)=C\C=C\[C@H](C)[C@H](O)[C@@H](C)[C@@H](O)[C@@H](C)[C@H](OC(C)=O)[C@@H]1C [Rifampicin, reference compound] | – | – | – | – | – | – | – | – | – | MIC90 [2]: 2.4 µM (≈ 1.98 µg/mL); IC50 [2]: 1.2 ± 0.1 µM
Inactive | 121 ± 2 | Inactive | Inactive | COc1ccc(CN(C(=O)CCCCB2OC(C)(C)C(C)(C)O2)c2ccccc2)cc1OC [Compound 31, N-(3,4-dimethoxybenzyl)-N-phenyl-5-(4,4,5,5-tetramethyl-1,3,2-dioxaborolan-2-yl)pentanamide] | low activity | – | – | selective but low to moderate activity | 126 ± 16.5 | selective but low to moderate activity | 58 ± 3.5 | selective but low to moderate activity | 108 ± 30.9 | antimicrobial activity against S. warneri (in words) [3]: low activity; MIC90 [3, 14]: 282 µM (≈ 128 µg/mL); IC50 [3, 15]: 135 ± 15.4 µM; IC50 Vero (normal cell line) [4]: Inactive; IC50 BJ (normal cell line) [5]: Inactive
– | 70.6 ± 6.6 | – | – | CCCCCC(=O)N(Cc1ccc(OC)c(OC)c1)c1cccc(B2OC(C)(C)C(C)(C)O2)c1 [Compound 25, N-(3,4-dimethoxyphenylmethyl)-N-[3-(4,4,5,5-tetramethyl-1,3,2-dioxaborolan-2-yl)phenyl]-hexanamide] | moderate activity | – | – | selective but low to moderate activity | 137 ± 12 | selective but low to moderate activity | 76.1 ± 3.4 | selective but low to moderate activity | 118 ± 19.5 | MIC90 [1, 10]: 137 µM (≈ 64 µg/mL); antimicrobial activity against VRE (in words) [2]: moderate activity; MIC90 [2]: 274 µM (≈ 128 µg/mL); IC50 [2]: 91.6 ± 6.8 µM; antimicrobial activity against S. warneri (in words) [3]: moderate activity; MIC90 [3, 14]: 137 µM (≈ 64 µg/mL); IC50 [3, 15]: 78.3 ± 39.8 µM; IC50 Vero (normal cell line) [4]: Inactive; IC50 BJ (normal cell line) [5]: Inactive
– | 13.2 | Inactive | Inactive | CCCCCCCCCC(=O)N(Cc1ccc(OC)c(OC)c1)c1cccc(B2OC(C)(C)C(C)(C)O2)c1 [Compound 26, N-(3,4-dimethoxyphenylmethyl)-N-[3-(4,4,5,5-tetramethyl-1,3,2-dioxaborolan-2-yl)phenyl]-decanamide] | selectively active | 47.2 ± 6.7 | 38.6 ± 1 | unselective cytotoxic effects | 44.3 ± 10.5 | unselective cytotoxic effects | 31.5 ± 2.7 | unselective cytotoxic effects | 35.7 ± 16.2 | MIC90 [1, 10]: 15.3 µM (≈ 8.01 µg/mL); S. warneri MIC90 [3, 12]: Inactive; S. warneri IC50 [3, 13]: Inactive; cytotoxic activity against Vero (in words) [4]: unselective cytotoxic effects; cytotoxic activity against BJ (in words) [5]: unselective cytotoxic effects

Compound | MRSA MIC90 [1, 10] | IC50 [1, 11] [µM] | VRE MIC90 [2] | VRE IC50 [2] | antimicrobial activity against MRSA (in words) [1] | IC50 [4] [µM] | IC50 [5] [µM] | cytotoxic activity against HCT116 (in words) [6] | IC50 [6] [µM] | cytotoxic activity against HTB-26 MDA-MB 231 (in words) [7] | IC50 [7] [µM] | cytotoxic activity against MCF7 (in words) [8] | IC50 [8] [µM] | further results
CN[C@H](CC(C)C)C(=O)N[C@H]1C(=O)N[C@@H](CC(N)=O)C(=O)N[C@H]2C(=O)N[C@H]3C(=O)N[C@H](C(=O)N[C@H](C(=O)O)c4cc(O)cc(O)c4-c4cc3ccc4O)[C@H](O)c3ccc(c(Cl)c3)Oc3cc2cc(c3O[C@@H]2O[C@H](CO)[C@@H](O)[C@H](O)[C@H]2O[C@H]2C[C@](C)(N)[C@H](O)[C@H](C)O2)Oc2ccc(cc2Cl)[C@H]1O [Vancomycin, reference compound] | 1.4^a μM | – | – | – | – | – | – | – | – | – | – | – | – | IC50 [1]: 0.5 ± 0.1 µM; MIC90 [1]: 1.4 µM (≈ 2.03 µg/mL); IC50 ([3]; ATCC17917, 22 h): 0.3 ± 0.1 µM; MIC90 ([3]; ATCC17917, 22 h): 0.3 µM (≈ 0.435 µg/mL)
